The values below come from patent US9938273B2 (Plexxikon Inc., priority 2015, dated 2018).

Holding throughout (assay type): biochemical
The target of one experiment is T1, FLT3-ITD (Homo sapiens, UniProt P36888).
T1 sequence (P36888 1-993): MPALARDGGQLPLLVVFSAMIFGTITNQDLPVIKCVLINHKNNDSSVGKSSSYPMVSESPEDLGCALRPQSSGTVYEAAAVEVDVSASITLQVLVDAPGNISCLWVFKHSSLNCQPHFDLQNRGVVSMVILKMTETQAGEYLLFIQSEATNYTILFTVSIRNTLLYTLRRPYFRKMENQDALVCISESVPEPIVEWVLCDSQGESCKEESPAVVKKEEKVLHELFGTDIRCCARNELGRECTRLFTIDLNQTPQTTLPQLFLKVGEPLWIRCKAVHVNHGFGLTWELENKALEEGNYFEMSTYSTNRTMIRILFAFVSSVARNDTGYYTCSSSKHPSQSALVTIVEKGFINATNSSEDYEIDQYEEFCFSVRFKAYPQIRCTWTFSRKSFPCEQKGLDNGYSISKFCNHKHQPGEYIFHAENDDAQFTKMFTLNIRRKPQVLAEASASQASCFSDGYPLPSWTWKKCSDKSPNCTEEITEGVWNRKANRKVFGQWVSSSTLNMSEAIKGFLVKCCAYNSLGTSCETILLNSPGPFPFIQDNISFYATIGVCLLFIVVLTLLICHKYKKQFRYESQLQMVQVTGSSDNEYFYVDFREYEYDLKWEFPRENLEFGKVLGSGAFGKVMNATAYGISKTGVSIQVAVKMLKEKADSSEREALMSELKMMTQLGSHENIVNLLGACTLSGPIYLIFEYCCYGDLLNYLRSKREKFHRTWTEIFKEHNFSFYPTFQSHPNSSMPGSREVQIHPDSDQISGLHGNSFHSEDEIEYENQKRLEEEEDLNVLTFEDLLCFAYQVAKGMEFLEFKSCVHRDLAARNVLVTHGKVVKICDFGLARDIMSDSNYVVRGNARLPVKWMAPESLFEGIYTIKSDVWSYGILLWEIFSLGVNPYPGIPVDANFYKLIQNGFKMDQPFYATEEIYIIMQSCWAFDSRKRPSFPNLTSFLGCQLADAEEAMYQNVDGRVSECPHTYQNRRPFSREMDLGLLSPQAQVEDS
In words: AlphaScreen kinase assay with recombinant enzyme, FLT3-ITD. The conditions noted are these: 8pt; read-out: FLT3_ITD 8pt: IC50. The method in brief:
(§1)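 Recombinant kinase phosphorylates biotinylated poly(Glu4-Tyr) peptide (30 nM final); streptavidin donor and anti-phosphotyrosine PY20 acceptor beads (10 μg/mL final) give a 580 nm proximity signal on 680 nm excitation. IC50 determinations used a final concentration of 10 μM for FLT3-D835Y/FLT3-ITD and 100 μM for c-KIT.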

The target of another experiment is T2, FLT3-D835Y (Homo sapiens, UniProt P36888, D835Y).
T2 construct: purchased Invitrogen PV3967
T2 sequence (P36888 27-993 D835Y): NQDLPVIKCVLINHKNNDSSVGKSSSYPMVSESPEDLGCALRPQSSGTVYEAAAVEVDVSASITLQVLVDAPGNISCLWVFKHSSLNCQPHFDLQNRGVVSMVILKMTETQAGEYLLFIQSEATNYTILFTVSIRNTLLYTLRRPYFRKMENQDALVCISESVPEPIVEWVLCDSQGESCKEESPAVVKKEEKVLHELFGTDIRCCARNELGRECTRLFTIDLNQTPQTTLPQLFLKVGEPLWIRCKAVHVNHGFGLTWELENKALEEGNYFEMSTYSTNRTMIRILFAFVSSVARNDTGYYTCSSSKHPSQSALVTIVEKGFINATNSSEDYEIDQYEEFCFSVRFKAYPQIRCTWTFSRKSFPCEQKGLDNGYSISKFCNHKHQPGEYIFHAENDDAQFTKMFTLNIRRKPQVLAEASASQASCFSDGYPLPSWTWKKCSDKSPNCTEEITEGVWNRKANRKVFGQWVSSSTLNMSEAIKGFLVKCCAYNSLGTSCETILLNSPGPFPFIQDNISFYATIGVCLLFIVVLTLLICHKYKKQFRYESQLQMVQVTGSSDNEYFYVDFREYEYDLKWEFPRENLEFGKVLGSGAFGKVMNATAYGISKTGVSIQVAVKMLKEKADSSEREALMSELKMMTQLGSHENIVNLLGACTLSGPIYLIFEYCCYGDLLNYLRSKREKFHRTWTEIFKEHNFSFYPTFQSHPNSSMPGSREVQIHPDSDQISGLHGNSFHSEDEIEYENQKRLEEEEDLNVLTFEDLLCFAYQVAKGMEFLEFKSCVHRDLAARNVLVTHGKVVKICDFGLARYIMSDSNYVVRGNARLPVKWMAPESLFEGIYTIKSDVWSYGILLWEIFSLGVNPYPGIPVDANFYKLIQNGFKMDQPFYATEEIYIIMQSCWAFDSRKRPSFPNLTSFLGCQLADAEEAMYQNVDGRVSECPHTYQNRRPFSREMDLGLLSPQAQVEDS
In words: AlphaScreen kinase assay with recombinant enzyme, FLT3-D835Y. The settings on record: 8pt, GMean. The method in brief: as §1
A general note: In Alpha technology, singlet oxygen from a donor bead excites a nearby acceptor bead.

The target in another experiment is T3, c-KIT (Homo sapiens, UniProt P10721).
T3 construct: purchased Millipore 14-559K
In words: AlphaScreen kinase assay with recombinant enzyme, c-KIT. The settings on record: 100ATP, 8pt, GMean. The method in brief: as §1

T3 sequence (P10721 26-976): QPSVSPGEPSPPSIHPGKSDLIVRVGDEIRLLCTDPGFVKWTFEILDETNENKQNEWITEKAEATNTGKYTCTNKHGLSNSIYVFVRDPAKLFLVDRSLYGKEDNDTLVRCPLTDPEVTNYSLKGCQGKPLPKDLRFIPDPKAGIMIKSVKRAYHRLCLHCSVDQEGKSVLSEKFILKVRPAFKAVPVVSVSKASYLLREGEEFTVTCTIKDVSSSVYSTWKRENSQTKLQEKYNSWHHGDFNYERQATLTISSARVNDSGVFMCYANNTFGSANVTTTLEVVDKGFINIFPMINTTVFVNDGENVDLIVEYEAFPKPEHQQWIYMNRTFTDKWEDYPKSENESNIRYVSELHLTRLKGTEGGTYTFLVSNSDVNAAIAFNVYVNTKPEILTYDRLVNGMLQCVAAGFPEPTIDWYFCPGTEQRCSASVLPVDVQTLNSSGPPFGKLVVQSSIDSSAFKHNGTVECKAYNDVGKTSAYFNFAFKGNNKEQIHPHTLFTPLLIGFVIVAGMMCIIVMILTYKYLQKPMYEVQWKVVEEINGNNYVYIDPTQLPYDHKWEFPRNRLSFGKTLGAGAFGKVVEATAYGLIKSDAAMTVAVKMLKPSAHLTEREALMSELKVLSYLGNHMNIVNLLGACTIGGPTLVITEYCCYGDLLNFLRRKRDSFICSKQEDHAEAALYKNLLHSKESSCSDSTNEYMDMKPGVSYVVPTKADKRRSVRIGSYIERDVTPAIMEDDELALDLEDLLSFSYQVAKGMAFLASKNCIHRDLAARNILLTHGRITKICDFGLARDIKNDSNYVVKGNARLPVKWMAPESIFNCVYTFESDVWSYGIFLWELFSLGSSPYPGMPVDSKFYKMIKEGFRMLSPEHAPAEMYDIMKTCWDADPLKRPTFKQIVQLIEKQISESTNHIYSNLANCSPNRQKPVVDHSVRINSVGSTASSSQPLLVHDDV

By IC50 is commonly meant the concentration needed to halve the response being measured. Consider `N#CC1CCN(C(=O)c2cccc(-c3cnc4[nH]c(-c5ccc(F)cc5)cc4c3)n2)C1` (stereo not drawn) [Compound P-0116, 1-[6-[2-(4-fluorophenyl)-1H-pyrrolo[2,3-b]pyridin-5-yl]pyridine-2-carbonyl]pyrrolidine-3-carbonitrile], for which the IC50 at FLT3-ITD, at FLT3-D835Y and at c-KIT was 0.0001 to 10 µM throughout.
Turning to `CC(C)(C#N)NC(=O)c1cccc(-c2cnc3[nH]c(-c4ccc(C(F)(F)F)nc4)cc3c2)n1` [Compound P-0201, N-(1-cyano-1-methyl-ethyl)-6-[2-[6-(trifluoromethyl)-3-pyridyl]-1H-pyrrolo[2,3-b]pyridin-5-yl]pyridine-2-carboxamide], the IC50 at FLT3-ITD fell in the range of 0.0001 to 10 µM; on FLT3-D835Y, 0.0001 to 10 µM; at c-KIT it was 50 to 100 µM.
Regarding `CC(C)(C#N)NC(=O)c1cccc(-c2cnc3[nH]c(-c4cnc(C(F)(F)F)nc4)cc3c2)n1` [Compound P-0204, N-(1-cyano-1-methyl-ethyl)-6-[2-[2-(trifluoromethyl)pyrimidin-5-yl]-1H-pyrrolo[2,3-b]pyridin-5-yl]pyridine-2-carboxamide], the IC50 on FLT3-ITD is 0.0001 to 10 µM; on FLT3-D835Y it was 0.0001 to 10 µM; on c-KIT, 50 to 100 µM.
With `CC(C)(C#N)NC(=O)c1cccc(-c2cnc3[nH]c(-c4ccc(F)nc4)cc3c2)n1` [Compound P-0208, N-(1-cyano-1-methyl-ethyl)-6-[2-(6-fluoro-3-pyridyl)-1H-pyrrolo[2,3-b]pyridin-5-yl]pyridine-2-carboxamide], the results for the concentration for half-maximal inhibition (IC50) on FLT3-ITD, at FLT3-D835Y and on c-KIT were 0.0001 to 10 µM, 0.0001 to 10 µM and 50 to 100 µM, respectively.
`CC(C)(C#N)NC(=O)c1cccc(-c2cnc3[nH]c(-c4cnc(C(C)(C)O)nc4)cc3c2)n1` [Compound P-0211, N-(1-cyano-1-methyl-ethyl)-6-[2-[2-(1-hydroxy-1-methyl-ethyl)pyrimidin-5-yl]-1H-pyrrolo[2,3-b]pyridin-5-yl]pyridine-2-carboxamide]: the IC50 at FLT3-ITD lay within 0.0001 to 10 µM; on FLT3-D835Y it was 0.0001 to 10 µM; at c-KIT, 50 to 100 µM.
